No end group written: not given here.

T6 sequence (P01903 26-254, other chains not shown): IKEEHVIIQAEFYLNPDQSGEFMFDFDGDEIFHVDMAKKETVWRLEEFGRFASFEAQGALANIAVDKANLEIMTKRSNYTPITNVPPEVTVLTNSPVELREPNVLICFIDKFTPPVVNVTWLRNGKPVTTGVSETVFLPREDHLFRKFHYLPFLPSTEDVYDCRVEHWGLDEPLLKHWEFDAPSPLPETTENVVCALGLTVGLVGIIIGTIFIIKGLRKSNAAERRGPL

For the first experiment, the target named is T1, DRB1*0901 (DR9) (Homo sapiens, UniProt P01903+P01911, A100R/A103E/D57H/D86V/F55Y/F60I/F76Y/I96F/K127E/L162R/M171V/P40D/Q125H/Q99R/R33Q/R42F/S133A/S66N/T210M/V115G/W38K/Y107V/Y59G/Y89S).
T1 construct: Epstein-Barr virus (EBV) transformed homozygous cell lines were used as sources; endogenous in cells
Description: biochemical. Type of experiment: binding. The settings on record: Binding Capacity (IC50% nM) DR9.
For QEIDPLSYNYIPVNSN [Peptide 1136.55], the IC50 is more than 10000 nM.

RVYQEPQVSPPQRAET [Peptide 1136.59.01a] came in with an IC50 of more than 10000 nM.

The same experiment, now with this note: read-out: Binding Capacity (IC 50% nM) Other Alleles DR9.
As to QEIDPLSYNYIPVNSN [Peptide 1136.55], the IC50 was more than 1000 nM.

For the sequence RVYQEPQVSPPQRAET [Peptide 1136.59.01a], the IC50 is more than 1000 nM.

Another experiment deals with T2, DRB1*0401 (DR4w4) (Homo sapiens, UniProt P01903+P01911, A100K/A169T/F76Y/I96L/K127E/L162R/M171V/N62H/P40V/Q125Y/R42H/S133A/S149N/S66Y/V115G/V209L/W38E).
T2 construct: Epstein-Barr virus (EBV) transformed homozygous cell lines were used as sources; endogenous in cells; host or cells: PREISS (EBV-transformed homozygous B cell line)
Kind of experiment: biochemical. Type of experiment: binding. Particulars: Binding Capacity (IC 50% nM) DR1,4,7 DR4w4.
In turn, QEIDPLSYNYIPVNSN [Peptide 1136.55] registered an IC50 of less than 1000 nM.

Sequence RVYQEPQVSPPQRAET [Peptide 1136.59.01a] displayed an IC50 of less than 1000 nM.

In another experiment the target is T3, DRB1*1201 (DR5w12) (Homo sapiens, UniProt P01903+P01911, A100R/A169T/D57E/D86V/F55L/H45Y/K41T/L162R/M171V/P40S/Q125H/Q178H/Q39Y/Q99D/R42G/S66L/T262R/V114A/V67L/W38E/Y59H/Y61H/Y89S).
T3 construct: Epstein-Barr virus (EBV) transformed homozygous cell lines were used as sources; endogenous in cells; host or cells: Herluf (EBV-transformed homozygous B cell line)
Description: biochemical. It counts as binding. Particulars: Binding Capacity (IC50% nM) DR5w12.
In turn, QEIDPLSYNYIPVNSN [Peptide 1136.55] returned an IC50 of more than 10000 nM.

On to RVYQEPQVSPPQRAET [Peptide 1136.59.01a], for which the IC50 is more than 10000 nM.

The same experiment, now with this note: read-out: Binding Capacity (IC 50% nM) Other Alleles DR5w12.
For QEIDPLSYNYIPVNSN [Peptide 1136.55], the IC50 was more than 1000 nM.

Take RVYQEPQVSPPQRAET [Peptide 1136.59.01a]: the IC50 is more than 1000 nM.

The target of another experiment is T4, DRB5*0101 (DR2w2a) (Homo sapiens, UniProt P01903+Q30154).
T4 construct: Epstein-Barr virus (EBV) transformed homozygous cell lines were used as sources; endogenous in cells; host or cells: GM3107 (EBV-transformed homozygous B cell line)
Description: biochemical. It counts as binding. The settings on record: Binding Capacity (IC50% nM) DR2w2a.
Turning to QEIDPLSYNYIPVNSN [Peptide 1136.55], the IC50 is more than 10000 nM.

The same experiment, now with this note: Binding Capacity (IC 50% nM) Other Alleles DR2w2a.
Take RVYQEPQVSPPQRAET [Peptide 1136.59.01a]: the IC50 is less than 1000 nM.

The experiment is the same for the next values; noted with them: read-out: Binding Capacity (IC 50% nM) Other Alleles DR2w2a.
For the sequence QEIDPLSYNYIPVNSN [Peptide 1136.55], the IC50 is more than 1000 nM.

For another experiment, the target named is T5, DRB1*0405 (DR4w15) (Homo sapiens, UniProt P01903+P01911, A100R/A169T/D86S/F76Y/I96L/K127E/L162R/M171V/N62H/P40V/Q125Y/R42H/S133A/S149N/S66Y/V115G/V209L/W38E).
T5 construct: Epstein-Barr virus (EBV) transformed homozygous cell lines were used as sources; endogenous in cells; host or cells: KT3 (EBV-transformed homozygous B cell line)
Kind of experiment: biochemical. Particulars: Binding Capacity (IC50% nM) DR4w15. It counts as binding.
QEIDPLSYNYIPVNSN [Peptide 1136.55] yielded an IC50 of 271 nM.

The sequence RVYQEPQVSPPQRAET [Peptide 1136.59.01a] came in with an IC50 of 3140 nM.

The same experiment, now with this note: Binding Capacity (IC 50% nM) Other Alleles DR4w15.
Take QEIDPLSYNYIPVNSN [Peptide 1136.55]: the IC50 was less than 1000 nM.

The same experiment, now with this note: read-out: Binding Capacity (IC 50% nM) Other Alleles DR4w15.
On to RVYQEPQVSPPQRAET [Peptide 1136.59.01a], for which the IC50 was more than 1000 nM.

The next experiment concerns the target T6, DRB1*1101 (DR5w11) (Homo sapiens, UniProt P01903+P01911, A100R/A169T/A87E/I96F/K41T/L162R/M171V/P40S/Q125H/Q178H/Q39Y/Q99D/R42S/S66Y/T262R/V115G/W38E).
T6 construct: Epstein-Barr virus (EBV) transformed homozygous cell lines were used as sources; endogenous in cells; host or cells: SWEIG (EBV-transformed homozygous B cell line)
Description: biochemical. It counts as binding. Particulars: Binding Capacity (IC50% nM) DR5w11.
Sequence QEIDPLSYNYIPVNSN [Peptide 1136.55] gave an IC50 of 4540 nM.

The sequence RVYQEPQVSPPQRAET [Peptide 1136.59.01a] had an IC50 of more than 10000 nM.

The experiment is the same for the next values; noted with them: read-out: Binding Capacity (IC 50% nM) Other Alleles DR5w11.
For the sequence QEIDPLSYNYIPVNSN [Peptide 1136.55], the IC50 was more than 1000 nM.

For RVYQEPQVSPPQRAET [Peptide 1136.59.01a], the IC50 was more than 1000 nM.

The target in the next experiment is T7, DRB1*1501 (DR2w2b) (Homo sapiens, UniProt P01903+P01911).
T7 construct: expressed in transfected cells; host or cells: transfected fibroblasts L466.1
Description: biochemical. It counts as binding. The settings on record: Binding Capacity (IC50% nM) DR2w2b.
As to QEIDPLSYNYIPVNSN [Peptide 1136.55], the IC50 was more than 10000 nM.

RVYQEPQVSPPQRAET [Peptide 1136.59.01a] registered an IC50 of more than 10000 nM.

The experiment is the same for the next values; noted with them: read-out: Binding Capacity (IC 50% nM) Other Alleles DR2w2b.
Take QEIDPLSYNYIPVNSN [Peptide 1136.55]: the IC50 is more than 1000 nM.

For the sequence RVYQEPQVSPPQRAET [Peptide 1136.59.01a], the IC50 is more than 1000 nM.

For the next experiment, the target named is T8, DRB1*1302 (DR6w19) (Homo sapiens, UniProt P01903+P01911, A100E/A169T/K41T/L162R/M171V/P40S/Q125H/Q178H/Q39Y/Q99D/R42S/S66N/T262R/V115G/W38E/Y61H).
T8 construct: Epstein-Barr virus (EBV) transformed homozygous cell lines were used as sources; the source of Class II molecules the EBV transformed homozygous cell line H0301; endogenous in cells; host or cells: H0301 (EBV-transformed homozygous B cell line)
Kind of experiment: biochemical. The settings on record: Binding Capacity (IC50% nM) DR6w19. It counts as binding.
QEIDPLSYNYIPVNSN [Peptide 1136.55] had an IC50 of 5000 nM.

RVYQEPQVSPPQRAET [Peptide 1136.59.01a] gave an IC50 of more than 10000 nM.

Still in this experiment, the particulars now being: read-out: Binding Capacity (IC 50% nM) Other Alleles DR6w19.
With QEIDPLSYNYIPVNSN [Peptide 1136.55], the IC50 was more than 1000 nM.

On to RVYQEPQVSPPQRAET [Peptide 1136.59.01a], for which the IC50 is more than 1000 nM.

In another experiment the target is T9, DRB1*0101 (DR1) (Homo sapiens, UniProt P01903+P01911, A100R/D57E/F55L/F60I/F76Y/I96L/L162R/M171V/P40L/Q125E/R42F/V115G/Y59C).
T9 construct: Epstein-Barr virus (EBV) transformed homozygous cell lines were used as sources; endogenous in cells; host or cells: LG2 (EBV-transformed homozygous B cell line)
Description: biochemical. Type of experiment: binding. Particulars: Binding Capacity (IC50% nM) DR1.
RVYQEPQVSPPQRAET [Peptide 1136.59.01a] registered an IC50 of 130 nM.

Staying with this experiment, now noted: Binding Capacity (IC 50% nM) DR1,4,7 DRB1.
With QEIDPLSYNYIPVNSN [Peptide 1136.55], the IC50 was less than 1000 nM.

RVYQEPQVSPPQRAET [Peptide 1136.59.01a]: the IC50 is less than 1000 nM.

The target in the next experiment is T10, DRB1*0701 (DR7) (Homo sapiens, UniProt P01903+P01911, A100R/A102G/A103Q/D57E/D86V/E43K/F76Y/K127E/L162R/M171V/P40G/Q125H/Q99D/R33Q/R42Y/R54Q/S133A/S66F/T210M/V115G/Y107V/Y59L/Y89S).
T10 construct: Epstein-Barr virus (EBV) transformed homozygous cell lines were used as sources; endogenous in cells; host or cells: PITOUT (EBV-transformed homozygous B cell line)
Kind of experiment: biochemical. Type of experiment: binding. Particulars: Binding Capacity (IC50% nM) DR7.
In turn, QEIDPLSYNYIPVNSN [Peptide 1136.55] had an IC50 of 2450 nM.

RVYQEPQVSPPQRAET [Peptide 1136.59.01a] showed an IC50 of more than 10000 nM.

Still in this experiment, the particulars now being: read-out: Binding Capacity (IC 50% nM) DR1,4,7 DR7.
Turning to QEIDPLSYNYIPVNSN [Peptide 1136.55], the IC50 was more than 1000 nM.

On to RVYQEPQVSPPQRAET [Peptide 1136.59.01a], for which the IC50 was more than 1000 nM.

In another experiment the target is T11, DRB1*0802 (DR8w2) (Homo sapiens, UniProt P01903+P01911, A100R/A103L/A169T/F76Y/H45Y/I96F/K41T/L162R/M171V/P40S/Q125H/Q178H/Q39Y/Q99D/R218S/R42G/S66Y/V115G/W38E).
T11 construct: Epstein-Barr virus (EBV) transformed homozygous cell lines were used as sources; endogenous in cells; host or cells: OLL (EBV-transformed homozygous B cell line)
Description: biochemical. It counts as binding. Particulars: Binding Capacity (IC50% nM) DR8w2.
Sequence QEIDPLSYNYIPVNSN [Peptide 1136.55] displayed an IC50 of more than 10000 nM.

On to RVYQEPQVSPPQRAET [Peptide 1136.59.01a], for which the IC50 is more than 10000 nM.

Still in this experiment, the particulars now being: read-out: Binding Capacity (IC 50% nM) Other Alleles DR8w2.
Turning to QEIDPLSYNYIPVNSN [Peptide 1136.55], the IC50 was more than 1000 nM.

Regarding RVYQEPQVSPPQRAET [Peptide 1136.59.01a], the IC50 was more than 1000 nM.

The next experiment concerns the target T12, DRB1*0301 (DR3w17) (Homo sapiens, UniProt P01903+P01911, A100K/A102G/A103R/A169T/F55Y/I96L/K41T/L162R/M171V/P40S/Q125H/Q178H/Q39Y/R42S/S66N/T106N/T262R/W38E/Y61H). Description: biochemical. The settings on record: Binding Capacity (IC50% nM) DR3.
For the sequence QEIDPLSYNYIPVNSN [Peptide 1136.55], the IC50 was more than 10000 nM.

RVYQEPQVSPPQRAET [Peptide 1136.59.01a] displayed an IC50 of more than 10000 nM.

For another experiment, the target named is T12, DRB1*0301 (DR3w17).
Test: not given
Particulars: read-out: Binding Capacity (IC 50% nM) Other Alleles DR3.
Turning to QEIDPLSYNYIPVNSN [Peptide 1136.55], the IC50 was more than 1000 nM.

RVYQEPQVSPPQRAET [Peptide 1136.59.01a]: the IC50 was more than 1000 nM.

The record behind these values is patent US6413517B1, “Identification of broadly reactive DR restricted epitopes” (Epimmune, Inc., priority 1997, dated 2002).
